This assay has as its target T1, human norepinephrine transporter (Homo sapiens, UniProt P23975).
T1 construct: isolate and amplify each of the three full-length cDNAs from an appropriate cDNA library; expressed in transfected cells; host or cells: HEK293 cells, stably transfected (pcDNA3.1-type vector); membranes used
The experiment in a line: Scintillation proximity assay, [3H]-nisoxetine binding at the norepinephrine transporter.

Where a name gives a salt, the structure may show the parent alone. Read-outs that look alike come from different tables or passages of the source.

T1 sequence (P23975 whole entry): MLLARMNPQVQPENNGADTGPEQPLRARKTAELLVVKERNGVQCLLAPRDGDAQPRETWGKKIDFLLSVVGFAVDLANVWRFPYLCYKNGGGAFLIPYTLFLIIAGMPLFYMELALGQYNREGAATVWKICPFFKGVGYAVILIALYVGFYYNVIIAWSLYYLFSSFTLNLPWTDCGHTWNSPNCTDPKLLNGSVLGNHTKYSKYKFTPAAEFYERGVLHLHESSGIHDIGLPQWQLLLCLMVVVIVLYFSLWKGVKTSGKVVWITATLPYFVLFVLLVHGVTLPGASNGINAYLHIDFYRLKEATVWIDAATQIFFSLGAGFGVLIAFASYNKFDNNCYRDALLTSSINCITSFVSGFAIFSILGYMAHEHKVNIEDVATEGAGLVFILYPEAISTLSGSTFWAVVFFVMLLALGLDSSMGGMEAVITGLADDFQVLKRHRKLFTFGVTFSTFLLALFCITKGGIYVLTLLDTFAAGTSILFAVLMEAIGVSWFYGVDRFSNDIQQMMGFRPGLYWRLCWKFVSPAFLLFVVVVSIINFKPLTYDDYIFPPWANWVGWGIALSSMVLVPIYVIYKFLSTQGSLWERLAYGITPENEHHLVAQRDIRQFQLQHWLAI

As to `OC(Cc1ccccc1OC(F)(F)F)(c1ccccc1)[C@H]1CNCCO1` (stereo in doubt) [Example 5, (S,R) 1-Morpholin-2-yl-1-phenyl-2-(2-trifluoromethoxy-phenyl)-ethanol hydrochloride], where the note is “scintillation proximity assay, 3H-nisoxetine, HEK-293 membranes, read-out: NET Ki”, the Ki (usually the equilibrium dissociation constant of an inhibitor or competing ligand from its target) is 12.4 nM.

Take `COc1ccc(F)cc1CC(O)(c1ccccc1)[C@H]1CNCCO1` (stereo in doubt) [Example 8, (S,R) 2-(5-Fluoro-2-methoxy-phenyl)-1-morpholin-2-yl-1-phenyl-ethanol hydrochloride]: affinity was put at a Ki of 3.6 nM.

The record behind these values is patent US7354920B2, “Aryl and heteroaryl morpholine derivatives” (Eli Lilly and Company, priority 2002, dated 2008).
